From patent publication US7507727B2, “Substituted quinobenzoxazine analogs and methods of using thereof” (Cylene Pharmaceuticals, Inc., priority 2003, dated 2009)

Experiments:
[1] = tested on: c-myc quadruplex relative to pUC 18 plasmid DNA; experiment: Quadruplex/duplex competitor assay (selectivity screen); format: binding; details: ratio of the competitor IC50 values; FIG. 3
Protocol: After cooling down to room temperature, 1 mM KCl and the test compound (various concentrations) were added and the mixture incubated for 15 minutes at room temperature. The primer extension was performed by adding 10 mM KCl and Taq DNA Polymerase (2.5 U/reaction, Promega) and incubating at 70° C. for […]. The reaction was stopped by adding 1 μl of the reaction mixture to 10 μl Hi-Di Formamide mixed and 0.25 μl LIZ120 size standard. Hi-Di Formamide and LIZ120 size standard were purchased from Applied Biosystems. The method is repeated with the addition of various concentrations of competitor nucleic acids at the first step, along with the primer and template sequences. The G-quadruplex binding ligand is added at the concentration previously established to produce a 1:1 ratio of stop-product to full-length product.
Quadruplex/Duplex Competitor Assay. The selectivity of compounds for the target quadruplex sequence relative to duplex DNA may be measured using a competition assay (i.e., “selectivity screen”). […] The degree to which each competitor successfully “soaks up” drug in solution is reflected by the quantitative decrease in synthesis of the stop product. In this manner, the relative binding affinities of drug to both the target quadruplex and duplex DNA are determined. […]

[2] = tested on: Chinese Hamster Ovary Cells (CHO); experiment: In vitro chromosome aberration assay (incl. mitotic index); format: cell-based; details: for % MI 3 HRS + S9 / % MI 20 HRS / % MI: average mitotic index; for % MI: first column (time not given)

**Q.** Which results are given for `CN1CCCC1CCNC(=O)c1cn2c3c(c(N4CCC(c5cnccn5)C4)c(F)cc3c1=O)Oc1cc3ccccc3cc1-2` (stereo not shown) [CX-3543]?
**A.** selectivity for the c-myc quadruplex relative to pUC 18 plasmid DNA [1]: approximately 400 ×; % CA 3 HRS ([2]; CHO, 0.0016 mg/mL): 6.0%; FI 3 HRS ([2]; CHO, 0.0016 mg/mL): 2.0; % CA 3 HRS + S9 ([2]; CHO, 0.0016 mg/mL): 4.5%; FI 3 HRS + S9 ([2]; CHO, 0.0016 mg/mL): 1.5; % CA 20 HRS ([2]; CHO, 0.0016 mg/mL): 4.5%; FI 20 HRS ([2]; CHO, 0.0016 mg/mL): 1.5; % CA 3 HRS ([2]; CHO, 0.005 mg/mL): 5.5%; FI 3 HRS ([2]; CHO, 0.005 mg/mL): 1.8; % CA 3 HRS + S9 ([2]; CHO, 0.005 mg/mL): 8.4%; FI 3 HRS + S9 ([2]; CHO, 0.005 mg/mL): 2.8; % CA 20 HRS ([2]; CHO, 0.005 mg/mL): 5.0%; FI 20 HRS ([2]; CHO, 0.005 mg/mL): 1.7; % CA 3 HRS + S9 ([2]; CHO, 0.016 mg/mL): 9.0%; FI 3 HRS + S9 ([2]; CHO, 0.016 mg/mL): 2.0; mutagenicity (chromosome aberrations) ([2]; CHO, 3 h, 3 h + S9, 20 h): not mutagenic; % MI 3 HRS + S9 ([2]; 0.0016 mg/mL): 12%; % MI 20 HRS ([2]; 0.0016 mg/mL): 8%; % MI ([2]; 0.0016 mg/mL): 6%; % MI 3 HRS + S9 ([2]; 0.005 mg/mL): 9%; % MI 20 HRS ([2]; 0.005 mg/mL): 4%; % MI ([2]; 0.005 mg/mL): 8%; % MI 3 HRS + S9 ([2]; 0.016 mg/mL): 1%; % MI 20 HRS ([2]; 0.016 mg/mL): 0%; % MI ([2]; 0.016 mg/mL): 1%; % MI 3 HRS + S9 ([2]; 0.05 mg/mL): 0%; % MI 20 HRS ([2]; 0.05 mg/mL): 0%; % MI ([2]; 0.05 mg/mL): 0%; % MI 3 HRS + S9 ([2]; 0.16 mg/mL): 0%; % MI 20 HRS ([2]; 0.16 mg/mL): 1%; % MI ([2]; 0.16 mg/mL): 0%; % MI 3 HRS + S9 ([2]; 0.5 mg/mL): 0%; % MI 20 HRS ([2]; 0.5 mg/mL): 0%; % MI ([2]; 0.5 mg/mL): 0%
